Laboratory results as given in PMC8904075 (Journal of medicinal chemistry, 2021).
Several values for one entry are separate records, joined by “and”; a condition that tells them apart may be missing. Equal entries are not always repeated.

Legend:
P. berghei-GFP = assay: In vivo efficacy, modified Thompson test
[1] = Aqueous stability / parent compound release by quantitative HPLC; assay type: physicochemical; settings: for parent compound released: release of parent compound 4
P. berghei-infected mice = settings: antimalarials in clinical trials; cited from earlier work
[2] = assay type: in vivo
[3] = tested on: P. falciparum clone W2/Indochina (chloroquine and pyrimethamine resistant); assay: In vitro antimalarial activity, 3H-hypoxanthine incorporation, W2; assay type: cell-based; settings: Table 2; means of at least two independent experiments
P. falciparum = assay: In vitro antimalarial activity as summarised in text; assay type: cell-based
[4] = tested on: P. falciparum TM90-C2B/Thailand (chloroquine, mefloquine, pyrimethamine, and atovaquone resistant); assay: In vitro antimalarial activity, 3H-hypoxanthine incorporation, TM90-C2B; assay type: cell-based; settings: Table 2; means of at least two independent experiments

COc1cc2[nH]c(C)c(-c3ccc(Oc4ccc(OC(F)(F)F)cc4)cc3F)c(=O)c2cc1Cl [compound 2, 6-chloro-3-(2-fluoro-4-(4-(trifluoromethoxy)phenoxy)phenyl)-7-methoxy-2-methyl-4(1H)-quinolone]
in vivo activity (P. berghei-GFP; single dose of 10 mg/kg, 0.5% aqueous HEC): completely inactive

CNCCOC(=O)OCOc1c(-c2ccc(C(F)(F)F)cc2)c(C)nc2cc(OC)c(Cl)cc12.Cl [compound 27, 6-Chloro-7-methoxy-2-methyl-3-(4-(trifluoromethyl)phenyl)-4-(((2-(methylammonio)ethoxycarbonyl)oxy)methoxy)quinoline, chloride salt]
parent compound released ([1]; in 1 h at pH 7.0): > 90%
parent compound released ([1]; in 10 h at pH 4.0): > 25%

C[C@H]1Cc2c([nH]c3cc(Cl)c(F)cc23)[C@@]2(N1)C(=O)Nc1ccc(Cl)cc12 [KAE609]
single oral (PO) curative dose, single exposure radical cure (P. berghei-infected mice): 100 mg/kg

COc1cc2[nH]c(C)c(-c3ccc(C(F)(F)F)cc3)c(=O)c2cc1Cl [compound 4, 6-chloro-7-methoxy-2-methyl-3-(4-(trifluoromethyl)phenyl)-4(1H)-quinolone]
Tmax ([2]; plasma, po, 50 mg/kg): 2 h
maximum plasma concentration of 4 ([2]; single oral 50 mg/kg of 4, 0.5% aqueous HEC): 365 nM

formaldehyde [compound 14]
W2 pEC50 [3]: inactive
EC50 (P. falciparum; release byproducts, devoid of antimalarial activity): > 4 µM
C2B pEC50 [4]: inactive

CNCCCOC(=O)OCOc1c(-c2ccc(C(F)(F)F)cc2)c(C)nc2cc(OC)c(Cl)cc12.Cl [compound 28, 6-Chloro-7-methoxy-2-methyl-3-(4-(trifluoromethyl)phenyl)-4-(((3-(methylammonio)propyloxycarbonyl)oxy)methoxy)quinoline, chloride salt]
parent compound released ([1]; in 5 h at pH 7.0): > 55%
stability at low pH values ([1]; low pH values): stable
Suppression [%] day 6 PI ± S.D. (P. berghei-GFP; 10 mg/kg PO once a day on days 3–5 PI, 0.5% aqueous HEC, mice): 82 ± 0.6%
extension of life span of treated animals relative to untreated controls (P. berghei-GFP; 10 and 50 mg/kg PO days 3–5 PI): does not significantly extend

CN1CCCOC1=O [compound 13, 3-Methyl-1,3-oxazinan-2-one]
EC50 (P. falciparum; Plasmodium falciparum): > 4 µM

CS(=O)(=O)c1ccc(-c2cnc(N)c(-c3ccc(C(F)(F)F)nc3)c2)cc1 [MMV390048]
single oral (PO) curative dose, single exposure radical cure (P. berghei-infected mice): 30 mg/kg

c1cc([C@H]2CC[C@]3(CC2)OOC2(O3)C3CC4CC(C3)CC2C4)ccc1OCCN1CCOCC1 (stereo partly shown) [OZ439]
single oral (PO) curative dose, single exposure radical cure (P. berghei-infected mice): 20 mg/kg

CCOC(=O)Oc1c(-c2ccccc2C)c(C)nc2cc(OC)c(Cl)cc12 [compound 11, 6-Chloro-7-methoxy-2-methyl-3-(o-tolyl)-4-((ethoxycarbonyl)oxy)quinoline]
fold less potent than reference compound 3 (P. falciparum; in vitro antimalarial activity, Table 1): 10 fold

CNCCCOC(=O)OCOc1c(-c2ccc(Oc3ccc(OC(F)(F)F)cc3)cc2F)c(C)nc2cc(OC)c(Cl)cc12.Cl [compound 30, 6-Chloro-7-methoxy-2-methyl-3-(2-fluoro-4-(4-(trifluoromethoxy)phenoxy)phenyl)-4-(((3-(methylammonio)propyloxycarbonyl)oxy)methoxy)quinoline, chloride salt]
single oral dose producing cures (P. berghei-GFP; P. berghei-infected mice, single dose, no advanced formulation): 3 mg/kg
average day of death (P. berghei-GFP; single dose 1 mg/kg PO, all 5 mice): > 13 days
number of cures (P. berghei-GFP; single dose 3 mg/kg PO on day 3 PI, 3 mg/kg): 5 out of 5 and 5/5
number of cures (P. berghei-GFP; single dose 10 mg/kg PO on day 3 PI, 10 mg/kg): 5 out of 5 and 5/5
clearance ([2]; single oral administration, 0.5% aqueous HEC): low clearance
